Reference: publication PMC4905667, “Discovery of Small-Molecule Modulators of the Human Y4 Receptor” (PLoS ONE, 2016)
Like-named read-outs stand apart in the source and are kept apart here. No end group written: not given here.

Experiments:
[1] = target: T1, human Y4R (Homo sapiens, UniProt P50391); assay: Inositol phosphate (IP3) accumulation assay, Y4R stimulated with PP; assay type: cell-based; settings: for IP accumulation following stimulation of Y4R (DMSO set to 100%): 10 μM compound, 1 nM PP, COS-7 cells with Δ6Gαqi4myr, mean ± SEM, n = 2; for Effect of compound on potency (pEC50) of PP at Y4R (in words): 30 μM compound vs DMSO, full PP concentration-response; for EC50 / Y4R PAM activity, potentiation of a PP EC20 response (in words): IP accumulation; for EC50: three independent experiments in duplicate; for Y4R PAM activity, potentiation of a PP EC20 response (in words): concentration-dependent
T1 construct: expressed in transfected cells
T1 sequence (P50391 whole entry): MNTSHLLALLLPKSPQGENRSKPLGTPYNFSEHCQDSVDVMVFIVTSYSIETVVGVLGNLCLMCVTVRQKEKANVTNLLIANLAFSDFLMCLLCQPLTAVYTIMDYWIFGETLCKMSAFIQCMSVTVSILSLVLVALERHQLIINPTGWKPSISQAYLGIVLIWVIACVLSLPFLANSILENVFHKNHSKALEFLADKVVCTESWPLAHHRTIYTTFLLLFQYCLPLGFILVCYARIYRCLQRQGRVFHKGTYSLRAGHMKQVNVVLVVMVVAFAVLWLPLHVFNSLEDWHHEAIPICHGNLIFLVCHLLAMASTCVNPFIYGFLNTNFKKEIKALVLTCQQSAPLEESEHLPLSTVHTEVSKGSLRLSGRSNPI
Method: (§1) COS-7 cells stably expressing hY1/2/4/5R_eYFP fusion protein and the Δ6Gαqi4myr chimeric Gα-protein were prepared as previously described. The hY1/2/4/5R_eYFP cDNA was subcloned into MCS1 of a pVitro2-MCS vector carrying a hygromycin resistance gene; the Δ6Gαqi4myr cDNA was subcloned into MCS1 of a pVitro2-MCS vector carrying a G418 resistance gene (Invivogen, San Diego, CA).
(§2) COS-7 (African Green Monkey kidney) cells stably expressing the hY1/2/4/5R_eYFP fusion protein and the Δ6Gαqi4myr chimeric Gα-protein were cultured at 37°C in high glucose Dulbecco’s Modified Eagle Medium (DMEM, Life Technologies, Carlsbad, CA) with glutamine and sodium pyruvate (Life Technologies/Lonza) supplemented with 10% (w/v) FBS (Invitrogen, Carlsbad, CA), 1.5 mg/mL G418-sulfate (Amresco, Solon, OH) and 133 μg/ml hygromycin (Invivogen).
(§3) Cells were seeded into 48-well plates and incubated for 24 hours at 37°C / 5% CO2. Afterwards, cells were labeled for at least 16 hours in DMEM+10% (w/v) FBS containing 2 μCi/ml myo-[2- ^3H(N)]-inositol (PerkinElmer) at 37°C / 5% CO2. Labeling solution was aspirated and cells were washed with 20 μL/well DMEM + 10 mM LiCl (Sigma-Aldrich; DMEM/LiCl) and stimulated with the peptide solutions and compounds. Specifically, 50 μl/well DMEM/LiCl were added after washing, followed by addition of 50 μl/well test compound in DMEM/LiCl (3-fold over the final concentration) and addition of 50 μl/well peptide solution (3-fold over the final concentration) in DMEM/LiCl. Stimulation was performed for 2 hours at 37°C / 5% CO2. Cell lysis, subsequent sample preparation and radiometric detection was performed as described previously.
(§4) Data analysis was performed with GraphPad Prism 5.03 software (GraphPad Software, San Diego, CA). Calculation of EC50 and pEC50 was performed using standard non-linear regression (log(agonist) vs. response, three parameters). All data were normalized to the corresponding control curve in the absence of the modulator. Final concentration response curves were created by calculating the mean and SEM of all individual experiments for each data point. Statistical evaluation was performed using two-way ANOVA and Bonferroni post test with * P ≤ 0.05, ** P ≤ 0.01, *** P ≤ 0.001.
(§5) Until now, no small molecule agonists of Y receptors have been described. Based on this lack of any structure activity data, identification of Y4R PAMs was initiated with a Ca^2+-flux-based HTS approach. An initial pilot screen was performed with the ‘Spectrum collection’, a small scale library with 2000 compounds comprising synthetic small molecules as well as purified natural products covering a range of known biologically active properties. This pilot screen yielded 65 putative PAMs. All initial hits were retested for off-target effects in wildtype COS-7 cells and the PAM effect was validated via concentration-dependent potentiation of a submaximal PP response. After eliminating structures that show off-target effects, seven compounds with potencies in the micromolar range were identified (S1 Fig) for further investigation. Validation of the Y4R PAM activity was performed with a well-established assay system for Y receptor activation studies, based on cellular accumulation of inositol phosphate. Furthermore, the compound activity at Y1R, Y2R and Y5R was examined at this stage of Y4R PAM identification. Therefore, Y receptor activation with an agonist ligand concentration causing a submaximal response (1 nM, Fig 1) was monitored in presence and absence of test compound. This experimental setup allows the detection of potential compound-induced shifts of the concentration-response curve and parallel testing of all compounds on all Y receptor subtypes. […]

[2] = test system: T2, human Y5R; assay: Inositol phosphate (IP3) accumulation assay, Y5R stimulated with NPY; assay type: cell-based; settings: for Effect of compound on potency (pEC50) of NPY at Y5R (in words): 30 μM compound vs DMSO, full NPY concentration-response
T2 construct: expressed in transfected cells
Method: as §1, §2, §3, §4
as §5, with “Furthermore, the compound activity at Y1R, Y2R and Y5R was examined at this stage of Y4R PAM identification.” left out, “compound.” for “compound. This experimental setup allows the detection of potential compound-induced shifts of the concentration-response curve and parallel testing of all compounds on all Y receptor subtypes.”

[3] = test system: T3, human Y2R; assay: Inositol phosphate (IP3) accumulation assay, Y2R stimulated with NPY; assay type: cell-based; settings: for Effect of compound on potency (pEC50) of NPY at Y2R (in words): 30 μM compound vs DMSO, full NPY concentration-response
T3 construct: expressed in transfected cells
Method: as §1, §2, §3, §4, §5

[4] = test system: T4, human Y1R; assay: Inositol phosphate (IP3) accumulation assay, Y1R stimulated with NPY; assay type: cell-based; settings: for Effect of compound on potency (pEC50) of NPY at Y1R (in words): 30 μM compound vs DMSO, full NPY concentration-response
T4 construct: expressed in transfected cells
Method: as §1, §2, §3, §4, §5

[5] = HPLC analysis of stability in DMEM assay conditions; assay type: physicochemical; settings: pre-incubated in DMEM for 2 hours at 37°C
Method: Supplementary file pone.0157146.s003.png: S3 Fig HPLC analysis of VU0118748 stability in DMEM assay conditions. […] To test the stability of VU0118748 in the assay conditions, the compound was pre-incubated in DMEM for 2 hours at 37°C. […] (PNG) Click here for additional data file.

[6] = test system: db/db mice and high fat diet induced obesity in mice; set-up: method as in PMID 25282357; settings: fed to mice, high nanomolar blood concentrations; cited from earlier work
[7] = test system: T5, Y4R; assay: HTS calcium flux assay; assay type: cell-based, human; settings: Ca2+ flux, COS-7 hY4R_eYFP Δ6Gαqi4myr
T5 construct: expressed in transfected cells
Method: as §1, §2
The purities of compounds in the Vanderbilt HTS facility are more than 95% as confirmed by the supplier. A total of 35,288 compounds were tested for their ability to modulate the Y4R activation in conjunction with the Vanderbilt HTS facility. In a pilot HTS experiment, 2000 compounds (spectrum collection, MicroSource Discovery Systems, Inc., Gaylordsville, CT) were screened for modulation of the Y4R. […]

[8] = read-out: EC50, potentiation of a PP EC20 response at Y4R
[9] = 10 μM compound, 1 nM NPY, mean ± SEM, n = 2
[10] = read-out: pEC50 ± SEM, potentiation of a PP EC20 response at Y4R (converted)

With `O=C(Nc1ccc([N+](=O)[O-])cc1Cl)c1cc(Cl)ccc1O` [Niclosamide, reference compound] the “IP accumulation following stimulation of Y4R (DMSO set to 100%)” value [1] was 185.7 ± 23.5%, the “Effect of compound on potency (pEC50) of PP at Y4R (in words)” value (from here on “Effect of compound … at Y4R (in words)”) [1] was “increase the potency of PP” and the EC50 [1, 8] was 620 nM. The “Increase in the potency of PP at Y4R (EC50 shift)” value ([1]; in presence of compound) was 4 fold, the “IP accumulation following stimulation of Y5R (DMSO set to 100%)” value [2, 9] was 83.4 ± 5.9% and the “Effect of compound on potency (pEC50) of NPY at Y5R (in words)” value [2] was “negative allosteric effect”. The “IP accumulation following stimulation of Y2R (DMSO set to 100%)” value [3, 9] was 88.5 ± 6.2%, the “Effect of compound on potency (pEC50) of NPY at Y2R (in words)” value (“Effect of compound … at Y2R (in words)” for short) [3] was “no effect” and the “IP accumulation following stimulation of Y1R (DMSO set to 100%)” value [4, 9] was 125.4 ± 14.6%. For the same molecule, the “Effect of compound on potency (pEC50) of NPY at Y1R (in words)” value (from here on “Effect of compound … at Y1R (in words)”) [4] was “small PAM effect”.

In the case of `O=C(Nc1ccc([N+](=O)[O-])cc1)c1cc(Br)ccc1O` [VU0048913], the “Effect of compound … at Y4R (in words)” value [1] is reported as “increase the potency of PP”, the EC50 [1, 8] is reported as 566 nM and the EC50 [1, 10] is reported as 575 nM. The “Effect of compound … at Y2R (in words)” value [3] was “slight PAM effect” and the “Effect of compound … at Y1R (in words)” value [4] was “no effect”.

With `Cc1ccc(NC(=O)c2cc([N+](=O)[O-])ccc2O)cc1` [VU0048992] the “Effect of compound … at Y4R (in words)” value [1] was “increase the potency of PP”, the EC50 [1, 8] was over 10000 nM and the “Effect of compound … at Y2R (in words)” value [3] was “slight PAM effect”. For the same molecule, the “Effect of compound … at Y1R (in words)” value [4] was “no effect”.

In the case of `O=C(Nc1ccc(Cl)cc1)c1cc([N+](=O)[O-])ccc1O` [VU0049150], the “Effect of compound … at Y4R (in words)” value [1] is reported as “increase the potency of PP”, the EC50 [1, 8] is reported as over 10000 nM and the “Effect of compound … at Y1R (in words)” value [4] is reported as “no effect”.

In the case of `O=C(Nc1cc(C(F)(F)F)ccc1Cl)c1ccc(F)c([N+](=O)[O-])c1` [VU0114795], the “Y4R PAM activity, potentiation of a PP EC20 response (in words)” value [1] is reported as “inactive” and the “Effect of compound … at Y2R (in words)” value [3] is reported as “slight PAM effect”.

For `O=C(Oc1ccc(Cl)cc1C(=O)Nc1ccc([N+](=O)[O-])cc1Cl)c1ccc([N+](=O)[O-])cc1` [VU0118748], the “Effect of compound … at Y4R (in words)” value [1] was “increase the potency of PP”, the EC50 [1, 8] was 473 nM and the EC50 [1, 10] was 437 nM. For the same molecule, the “Effect of compound on potency (pEC50) of NPY at Y5R (in words)” value [2] was “negative allosteric effect”, the Compound still intact [5] was 95% and the “Effect of compound … at Y1R (in words)” value [4] was “no effect”.

With `COc1ccc(/C=C/C(=O)c2ccc(O)cc2O)cc1OC` [VU0244224] the “IP accumulation following stimulation of Y4R (DMSO set to 100%)” value [1] was 127 ± 19%, the “Effect on Y5R signal transduction (in words)” value ([2]; 10 μM compound, 1 nM NPY) was “no effects” and the “Effect on Y2R signal transduction (in words)” value ([3]; 10 μM compound, 1 nM NPY) was “no effects”. The “Effect on Y1R signal transduction (in words)” value ([4]; 10 μM compound, 1 nM NPY) was “no effects”.

For `O=C(Nc1ccc([N+](=O)[O-])cc1Cl)c1ccncc1` [VU0357475], the “Y4R PAM activity, potentiation of a PP EC20 response (in words)” value [1] was “inactive”.

With `Nc1ncnc2c1ncn2[C@@H]1O[C@H](CO)[C@@H](O)[C@H]1O` [adenosine, reference compound] the “IP accumulation following stimulation of Y4R (DMSO set to 100%)” value [1] was 120 ± 11%, the “Effect on Y5R signal transduction (in words)” value ([2]; 10 μM compound, 1 nM NPY) was “slightly decrease” and the “Effect on Y1R signal transduction (in words)” value ([4]; 10 μM compound, 1 nM NPY) was “slightly decrease”.

In the case of `NCCO.O=C(Nc1ccc([N+](=O)[O-])cc1Cl)c1cc(Cl)ccc1O` [ethanolamine salt form of Niclosamide], the “Efficacy on diabetic symptoms (plasma insulin decline, insulin response, high fat diet induced obesity)” value [6] is given as “efficacious”.

In the case of “pancreatic polypeptide (APLEPVYPGDNATPEQMAQYAADLRRYINMLTRPRY; ends and bridges not checked; UniProt P01298 30-65, looked up) [PP, native peptide ligand of the Y4R]”, the “PP EC20” value [7] is reported as 0.055 ± 0.027 nM and the “PP EC80” value [7] is reported as 0.836 ± 0.033 nM.
